Assay results published in ChEMBL document CHEMBL3217717, “Synthesis and antiproliferative activity of novel erythromycin derivatives” (Medchemcomm, 2010).

Assays:
[1] = Cell cycle arrest in human HT1080 cells assessed as accumulation at subG1 phase at 0.5 times IC50 after 24 hrs by propidium iodide staining-based flow cytometric analysis (reference value: 0.82%); assay type: functional; settings: HT-1080
[2] = Cell cycle arrest in human HT1080 cells assessed as accumulation at G0/G1 phase after 24 hrs by propidium iodide staining-based flow cytometric analysis; assay type: functional; settings: HT-1080
[3] = Cell cycle arrest in human HT1080 cells assessed as accumulation at G0/G1 phase at 0.5 times IC50 after 24 hrs by propidium iodide staining-based flow cytometric analysis (reference value: 49.18%); assay type: functional; settings: HT-1080
[4] = Cell cycle arrest in human HT1080 cells assessed as accumulation at S phase at IC50 after 48 hrs by propidium iodide staining-based flow cytometric analysis (reference value: 15.11%); assay type: functional; settings: HT-1080
[5] = Cell cycle arrest in human HT1080 cells assessed as accumulation at G0/G1 phase at 2 times IC50 after 24 hrs by propidium iodide staining-based flow cytometric analysis (reference value: 49.18%); assay type: functional; settings: HT-1080
[6] = Cell cycle arrest in human HT1080 cells assessed as accumulation at subG1 phase at IC50 after 48 hrs by propidium iodide staining-based flow cytometric analysis (reference value: 1.86%); assay type: functional; settings: HT-1080
[7] = Cell cycle arrest in human HT1080 cells assessed as accumulation at subG1 phase at 2 times IC50 after 24 hrs by propidium iodide staining-based flow cytometric analysis (reference value: 0.82%); assay type: functional; settings: HT-1080
[8] = Cell cycle arrest in human HT1080 cells assessed as accumulation at G2/M phase at IC50 after 24 hrs by propidium iodide staining-based flow cytometric analysis (reference value: 23.71%); assay type: functional; settings: HT-1080
[9] = Cell cycle arrest in human HT1080 cells assessed as accumulation at G2/M phase at IC50 after 48 hrs by propidium iodide staining-based flow cytometric analysis (reference value: 31.39%); assay type: functional; settings: HT-1080
[10] = Cell cycle arrest in human HT1080 cells assessed as accumulation at subG1 phase at 0.5 times IC50 after 48 hrs by propidium iodide staining-based flow cytometric analysis (reference value: 1.86%); assay type: functional; settings: HT-1080
[11] = Cell cycle arrest in human HT1080 cells assessed as accumulation at G2/M phase at 0.5 times IC50 after 24 hrs by propidium iodide staining-based flow cytometric analysis (reference value: 23.71%); assay type: functional; settings: HT-1080
[12] = Cytotoxicity against human SGC7901 cells assessed as growth inhibition after 48 hrs by MTT assay; assay type: functional, cell-based; settings: SGC-7901, 48 h
[13] = Cell cycle arrest in human HT1080 cells assessed as accumulation at S phase at 2 times IC50 after 48 hrs by propidium iodide staining-based flow cytometric analysis (reference value: 15.11%); assay type: functional; settings: HT-1080
[14] = Cell cycle arrest in human HT1080 cells assessed as accumulation at S phase at IC50 after 24 hrs by propidium iodide staining-based flow cytometric analysis (reference value: 21.01%); assay type: functional; settings: HT-1080
[15] = Cytotoxicity against human HT1080 cells assessed as growth inhibition after 48 hrs by MTT assay; assay type: functional, cell-based; settings: HT-1080, 48 h
[16] = Cell cycle arrest in human HT1080 cells assessed as accumulation at subG1 phase at 2 times IC50 after 48 hrs by propidium iodide staining-based flow cytometric analysis (reference value: 1.86%); assay type: functional; settings: HT-1080
KB = assay: Cytotoxicity against human KB cells assessed as growth inhibition after 48 hrs by MTT assay; assay type: functional, cell-based
[17] = Cell cycle arrest in human HT1080 cells assessed as accumulation at subG1 phase at IC50 after 24 hrs by propidium iodide staining-based flow cytometric analysis (reference value: 0.82%); assay type: functional; settings: HT-1080
[18] = Cell cycle arrest in human HT1080 cells assessed as accumulation at S phase at 0.5 times IC50 after 24 hrs by propidium iodide staining-based flow cytometric analysis (reference value: 21.01%); assay type: functional; settings: HT-1080
[19] = Cell cycle arrest in human HT1080 cells assessed as accumulation at G2/M phase at 0.5 times IC50 after 48 hrs by propidium iodide staining-based flow cytometric analysis (reference value: 31.39%); assay type: functional; settings: HT-1080
[20] = Cell cycle arrest in human HT1080 cells assessed as accumulation at G0/G1 phase at IC50 after 24 hrs by propidium iodide staining-based flow cytometric analysis (reference value: 49.18%); assay type: functional; settings: HT-1080
[21] = Cell cycle arrest in human HT1080 cells assessed as accumulation at S phase at 2 times IC50 after 24 hrs by propidium iodide staining-based flow cytometric analysis (reference value: 21.01%); assay type: functional; settings: HT-1080
[22] = Cell cycle arrest in human HT1080 cells assessed as accumulation at G0/G1 phase at 2 times IC50 after 48 hrs by propidium iodide staining-based flow cytometric analysis (reference value: 41.60%); assay type: functional; settings: HT-1080
[23] = Cell cycle arrest in human HT1080 cells assessed as accumulation at G2/M phase at 2 times IC50 after 24 hrs by propidium iodide staining-based flow cytometric analysis (reference value: 23.71%); assay type: functional; settings: HT-1080
[24] = Cell cycle arrest in human HT1080 cells assessed as accumulation at G0/G1 phase at IC50 after 48 hrs by propidium iodide staining-based flow cytometric analysis (reference value: 41.60%); assay type: functional; settings: HT-1080
[25] = Cell cycle arrest in human HT1080 cells assessed as accumulation at S phase at 0.5 times IC50 after 48 hrs by propidium iodide staining-based flow cytometric analysis (reference value: 15.11%); assay type: functional; settings: HT-1080
[26] = Cell cycle arrest in human HT1080 cells assessed as accumulation at G0/G1 phase at 0.5 times IC50 after 48 hrs by propidium iodide staining-based flow cytometric analysis (reference value: 41.60%); assay type: functional; settings: HT-1080
[27] = Cell cycle arrest in human HT1080 cells assessed as accumulation at G2/M phase at 2 times IC50 after 48 hrs by propidium iodide staining-based flow cytometric analysis (reference value: 31.39%); assay type: functional; settings: HT-1080
[28] = Cell cycle arrest in human HT1080 cells assessed as accumulation at G0/G1 phase at 0.5 to 2 times IC50 by propidium iodide staining-based flow cytometric analysis; assay type: functional; settings: HT-1080, TDE = time-dependent effect
[29] = Cell cycle arrest in human HT1080 cells assessed as accumulation at G0/G1 phase after 24 to 48 hrs by propidium iodide staining-based flow cytometric analysis; assay type: functional; settings: HT-1080

SMILES	Activity [1]	Activity [3]	Activity [4]	Activity [5]	Activity [6]	Activity [7]	Activity [8]	Activity [9]	Activity [10]	Activity [11]	IC50 [12]	Activity [13]	Activity [14]	IC50 [15]	Activity [16]	IC50 (KB)	Activity [17]	Activity [18]	Activity [19]	Activity [20]	other results
CC[C@H]1OC(=O)[C@H](C)[C@@H](O[C@H]2C[C@@](C)(OC)[C@@H](O)[C@H](C)O2)[C@H](C)[C@@H](O[C@@H]2O[C@H](C)C[C@H](N(C)CCN(C)[C@H]3C[C@@H](C)O[C@@H](O[C@@H]4[C@@H](C)[C@H](O[C@H]5C[C@@](C)(OC)[C@@H](O)[C@H](C)O5)[C@@H](C)C(=O)O[C@H](CC)[C@@](C)(O)[C@H](O)[C@@H](C)/C(=N\O)[C@H](C)C[C@@]4(C)O)[C@@H]3O)[C@H]2O)[C@](C)(O)C[C@@H](C)/C(=N/O)[C@H](C)[C@@H](O)[C@]1(C)O	1.41%	66%	9.35%	66.6%	1.34%	8.14%	11.5%	10.8%	1.34%	14.4%	21.7 µM	14.8%	13.9%	8.6 µM	15.7%	6.2 µM	2.01%	16.5%	10.1%	71.2%	Activity [2]: Dose-dependent effect; Activity [21]: 11.1%; Activity [22]: 48.7%; Activity [23]: 12.5%; Activity [24]: 77.3%; Activity [25]: 6.94%; Activity [26]: 80%; Activity [27]: 17.9%
CC[C@H]1OC(=O)[C@H](C)[C@@H](O[C@H]2C[C@@](C)(OC)[C@@H](O)[C@H](C)O2)[C@H](C)[C@@H](O[C@@H]2O[C@H](C)C[C@H](N(C)CCN(C)[C@H]3C[C@@H](C)O[C@@H](O[C@@H]4[C@@H](C)[C@H](O[C@H]5C[C@@](C)(OC)[C@@H](O)[C@H](C)O5)[C@@H](C)C(=O)O[C@H](CC)[C@@](C)(O)[C@H](O)[C@@H](C)/C(=N\O)[C@H](C)C[C@@]4(C)OC)[C@@H]3O)[C@H]2O)[C@](C)(OC)C[C@@H](C)/C(=N/O)[C@H](C)[C@@H](O)[C@]1(C)O	0.6%	62%	12.6%	75.1%	0.77%	0.85%	18.5%	12.8%	0.75%	17.4%	7.8 µM	11.5%	15.9%	5.3 µM	2.47%	4.4 µM	0.77%	18.1%	15.3%	62.7%	Activity [28]: tde; Activity [29]: Dose-dependent effect; Activity [21]: 10.8%; Activity [22]: 74.5%; Activity [23]: 11.9%; Activity [24]: 71.9%; Activity [25]: 13.7%; Activity [26]: 67.6%; Activity [27]: 10.1%
